Data on twelve molecules can be found in patent US7101875B2, “Methods for treating arthritic disorders” (Wyeth, priority 2001, dated 2006).

Test system in one series: not given
Assay: not given
Conditions: not given
What is called melting point is the temperature of the solid-liquid transition. In the case of `O=C(O)c1ccc(OCCc2c(CCNS(=O)(=O)Cc3ccccc3Cl)n(C(c3ccccc3)c3ccccc3)c3ccc(Cl)cc23)cc1F` [Example 297, 4-{2-[1-benzhydryl-5-chloro-2-(2-{[(2-chlorobenzyl)sulfonyl]amino}ethyl)-1H-indol-3-yl]ethoxy}-2-fluorobenzoic acid], the melting point was in the range of 132 to 135 °C. For `CC(C)(Cc1ccc(S(=O)(=O)CCc2c(CCNS(=O)(=O)Cc3ccc(Cl)c(Cl)c3)n(C(c3ccccc3)c3ccccc3)c3ccc(Cl)cc23)cc1)C(=O)O` [Example 298, 3-[4-({2-[1-benzhydryl-5-chloro-2-(2-{[(3,4-dichlorobenzyl)sulfonyl]amino}ethyl)-1H-indol-3-yl]ethyl}sulfonyl)phenyl]-2,2-dimethylpropanoic acid], the melting point lay within 207 to 208 °C.

For the molecule `O=C(O)c1ccc(OCCc2c(CCNS(=O)(=O)Cc3ccc(Cl)c(Cl)c3)n(C(c3ccccc3)c3ccccc3)c3ccc(Cl)cc23)cc1F` [Example 296, 4-{2-[1-benzhydryl-5-chloro-2-(2-{[(3,4-dichlorobenzyl)sulfonyl]amino}ethyl)-1H-indol-3-yl]ethoxy}-2-fluorobenzoic acid], the melting point is 117 to 119 °C.

The target of another series is T1, cPLA2 (Homo sapiens, UniProt P47712).
T1 sequence (P47712 1-749): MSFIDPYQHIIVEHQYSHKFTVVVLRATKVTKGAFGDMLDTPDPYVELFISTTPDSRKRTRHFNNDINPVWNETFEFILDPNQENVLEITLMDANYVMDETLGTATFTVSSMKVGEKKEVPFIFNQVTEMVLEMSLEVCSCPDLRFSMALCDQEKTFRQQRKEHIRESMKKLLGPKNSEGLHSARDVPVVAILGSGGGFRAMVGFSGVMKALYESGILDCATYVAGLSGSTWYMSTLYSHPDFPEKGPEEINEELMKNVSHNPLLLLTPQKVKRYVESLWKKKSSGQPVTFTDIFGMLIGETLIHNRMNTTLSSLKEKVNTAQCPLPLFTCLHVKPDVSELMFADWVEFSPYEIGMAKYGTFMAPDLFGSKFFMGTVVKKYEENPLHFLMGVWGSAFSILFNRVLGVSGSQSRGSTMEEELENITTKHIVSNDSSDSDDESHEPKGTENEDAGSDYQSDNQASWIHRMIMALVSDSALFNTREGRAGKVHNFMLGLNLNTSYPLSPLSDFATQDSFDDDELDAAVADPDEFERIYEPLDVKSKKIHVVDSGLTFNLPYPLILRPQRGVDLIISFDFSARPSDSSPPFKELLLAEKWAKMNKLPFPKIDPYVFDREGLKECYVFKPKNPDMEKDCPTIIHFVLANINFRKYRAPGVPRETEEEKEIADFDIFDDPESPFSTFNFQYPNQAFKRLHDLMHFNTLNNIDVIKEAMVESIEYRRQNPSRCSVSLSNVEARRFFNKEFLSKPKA
Kind of series: Coumarine Assay (hydrolysis of 7-hydroxycoumarinyl 6-heptenoate by cPLA2, fluorometric). The series is classed as biochemical. To be noted: 60 μM 7-hydroxycoumarinyl 6-heptenoate substrate, 4 μg cPLA2, pH 7.5, excitation 360 nm / emission 460 nm; read-out: Coumarin IC50.
Protocol: Inhibitors were mixed with 200 μL assay buffer (80 mM Heped, pH 7.5, 1 mM EDTA) containing 60 μM 7-hydroxycoumarinyl 6-heptenoate. The reaction was initiated by adding 4 μg cPLA2 in 50 μL assay buffer. Hydrolysis of the 7-hydroxycounarimyl 6-heptenoate ester was monitored in a fluorometer by exciting at 360 nm and monitoring emission at 460 nm. Enzyme activity is proportional to the increase in emission at 460 nm per minute. In the presence of a cPLA2 inhibitor, the rate of increase is less.
As usually defined, the IC50 is the concentration that inhibits the measured activity by half. Consider “4-{2-[1-Benzhydryl-5-chloro-2-{2-[({2-trifluoromethylsulfonylbenzene}-sulfonyl)amino]ethyl}-1H-indol-3-yl)propyl]benzoic acid [Example 208]”, for which the IC50 stood at 240 nM.

Turning to `O=C(O)c1ccc(OCCc2c(CCNS(=O)(=O)Cc3ccc(Cl)c(Cl)n3)n(C(c3ccccc3)c3ccccc3)c3ccc(Cl)cc23)cc1` [Example 76], the IC50 was found to be 400 nM. “4-{2-[1-benzhydryl-5-chloro-2-(2-{[(2,6-dimethylbenzyl)sulfonyl]amino}ethyl)-1H-indol-3-yl]ethoxy}benzoic acid [Example 279]”: the IC50 was 160 nM. Same read-out and setting: then `CC(Cc1ccc(C(=O)O)cc1)c1c(CCNS(=O)(=O)Cc2ccccc2[N+](=O)[O-])n(C(c2ccccc2)c2ccccc2)c2ccc(Cl)cc12` (stereo not drawn) [Example 56, 4-{2-[1-Benzhydryl-5-chloro-2-{2-[({2-nitrobenzyl}-sulfonyl)amino]ethyl}-1H-indol-3-yl)propyl]benzoic acid], with 130 nM. For `COc1ccccc1SCS(=O)(=O)NCCc1c(CCOc2ccc(C(=O)O)cc2)c2cc(Cl)ccc2n1C(c1ccccc1)c1ccccc1` [Example 83], the IC50 came to 450 nM. For the molecule “4-[2-(1-benzhydryl-5-chloro-2-{2-[({2-[(3R,5S)-3,5-dimethylmorpholin-4-yl]ethyl}sulfonyl)amino]ethyl}-1H-indol-3-yl)ethoxy]benzoic acid [Example 250]”, the IC50 was 2100 nM. In the case of `Nc1ccccc1CS(=O)(=O)NCCc1cc(OCCc2cn(C(c3ccccc3)c3ccccc3)c3ccc(Cl)cc23)ccc1C(=O)O` [Example 16, 2-(2-{[(2-Aminobenzyl)sulfonyl]amino}ethyl)-4-{2-[1-benzhydryl-5-chloro-1H-indol-3-yl]ethoxy}benzoic acid], the IC50 came out at 980 nM. On the same count and under the same terms, in the case of “2-{2-[1-Benzhydryl-5-chloro-2-(2-phenylmethanesulfonylamino-ethyl)-1H-indol-3-yl]-ethoxy}-benzoic acid [Example 283]” it was 500 nM; in that of `CC(C)Oc1cc(OCCc2c(CCNS(=O)(=O)Cc3ccc(Cl)c(Cl)c3)n(C(c3ccccc3)c3ccccc3)c3ccc(Cl)cc23)ccc1C(=O)O` [Example 300, 4-{2-[1-benzhydryl-5-chloro-2-(2-{[(3,4-dichlorobenzyl)sulfonyl]amino}ethyl)-1H-indol-3-yl]ethoxy}-2-isopropoxybenzoic acid], above 2000 nM.
